Source: PMC9260667, “Thioredoxin Reductase Inhibitors as Potential Antitumors: Mercury Compounds Efficacy in Glioma Cells” (Frontiers in Molecular Biosciences, 2022)
Where two headings read alike, the source gives them in different places.

Columns and labels:
GL261 cells [1] = assay: cells; type: cell-based, mouse
Procedure: Cells were seeded in 96-well plates for 24 h prior to the addition of TmHg, EtHg (1 µM), TMZ (200, 400, and 800 µM), and for the 48 h end point the co-exposure of TMZ 200 µM with 1 µM EtHg and 1 µM TmHg. After exposure for 24 and 48 h, the supernatant was transferred to a fresh plate and a lysis buffer (10×) (Thermo Scientific™ Pierce™) was added to wells containing cells and incubated at 37°C for 45 min. LDH activity was evaluated using LDH Cytotoxicity Assay Kit from Thermo Scientific™ Pierce™ in the supernatant and lysate by the addition of lactate (substrate), a tetrazolium salt, and NAD^+ (cofactor) (Reaction Mixture), according to the manufacturer’s instructions. Following 30 min of incubation in the dark at room temperature, LDH release was assessed by measuring the absorbance at 490 and 680 nm in a microplate reader (Omega BMG LABTECH). The release of LDH was quantified as the ratio between the amount in the supernatant and total LDH (supernatant + lysate) ([Branco et al., 2017]).

GL261 cells [2] = assay: cells; type: cell-based, mouse; conditions: for IC50: Mus musculus, read-out: IC50 (MTT assay)
Procedure: The effect of TmHg and EtHg on the viability of GL261 and N9 cells was evaluated by the MTT assay as previously described ([Branco et al., 2014]). Briefly, cells (5 × 10^3) were seeded in 96-well plates (Nunc®) and incubated at 37°C for 24 h to allow proper adherence to plates. Afterwards, TmHg and EtHg (0, 0.5, 1, 2.5, and 5 μM) were added to wells. The same procedure was carried out to evaluate the effect of TMZ on the cellular viability of GL261 and DMSO at a final concentration of 0.1% was added as a control group. For co-exposure, the addition of the mercury compounds (EtHg—1 and 2 μM; TmHg—1 and 2 µM) under study followed the addition of TMZ (200 µM).
Cell viability was determined at the time of addition of the compounds (0 h) and after 24, 48, and 72 h of exposure by adding MTT to a final concentration of 400 μg/ml per well and incubating at 37°C for 4 h. After incubation, the medium was removed, and the formazan crystals were dissolved in a 4:1 DMSO/glycine buffer (pH 10.5). After shaking for 15 min, the viability was evaluated through the measurement of formazan absorption at 550 nm on a microplate reader (Zenyth 3100, Anthos Labtec Instruments) ([Branco et al., 2014]).
The IC50 is the concentration of a compound that decreases MTT reduction by 50% relative to the non-treated control at each time point.

[3] = design: method as in JECFA 2004, WHO Technical Report Series 922; conditions: ref JECFA 2004, WHO Technical Report Series 922; cited from earlier work

Compound	change of LDH levels (GL261 cells [1]; GL261, 200 µM TMZ alone)	EC50 (GL261 cells [1]; Mus musculus, GL261, 48 h exposure, read-out: EC50 (LDH assay))	reduction of viability (MTT) (GL261 cells [2]; GL261, 24 h exposure, maximal effect)	IC50 (GL261 cells [2]; GL261, 48 h exposure)	IC50 (GL261 cells [2]; GL261, 72 h exposure)	safe concentration of intake without appearance of neurological disorders [3]
Cn1nnc2c(C(N)=O)ncn2c1=O [TMZ, temozolomide]	did not change the levels of LDH	> 800 µM	≤ 40%	444 ± 60 µM	276 ± 7 µM	–
[CH3][Hg][Cl] [methylmercury]	–	–	–	–	–	1.6 µg/Kg b.w./week
